Ten compounds from ChEMBL document CHEMBL1201862, “PubChem BioAssay data set” (2004) can be followed below.

Among the test systems are CCRF-CEM; HCT-15; MOLT-4; SR; COLO 205; SN12C; SK-MEL-28; UACC-62; A549; RXF 393; HT-29; UACC-257; Malme-3M; A498; 786-0; SF-539; SW-620; CAKI-1; SNB-75.
Common to all, as to experiment: growth of human tumour cells (NCI), 48 h

Molecules are shown by their SMILES. Values joined by “and” are separate entries in the source; they are usually repeats but may differ in a detail not shown here. Equal entries are not always repeated.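 1) Cells in 96-well plates. 2) Compound, 48 h, 5 concentrations. 3) Linear interpolation between surrounding doses. 4) Unreached endpoint = highest concentration. Here, GI50 denotes the concentration required for 50% inhibition of growth.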 Active and inactive are the calls of the source. Cut-off read from the data, not from the text of the source: active = GI50 up to about 1.1 µM and inactive = higher. Bounds are passed on as bounds.

With `O=C(c1ccccc1)C(c1ccccc1)C1(O)C(=O)Nc2ccc(Br)cc21` (stereo unspecified), the GI50 was 17.7 µM (inactive) with CCRF-CEM; 60.1 µM in the test with HCT-15; 23.6 µM (inactive) in the test on MOLT-4; 18.7 µM (inactive) with SR; > 100 µM (inactive) in the test with COLO 205; 35.8 µM (inactive) in the test on SN12C. For the same compound, the GI50 in the test with SK-MEL-28 was 46.1 µM (inactive); with UACC-62, 20.1 µM (inactive); in the test with A549, > 100 µM (inactive); in the test with RXF 393 it was > 100 µM (inactive); in the test on HT-29, 52 µM (inactive); in the test with UACC-257 it was 22.3 µM (inactive). Besides, the GI50 is 76.6 µM (inactive) with Malme-3M; > 100 µM (inactive) in the test on A498; 71.9 µM (inactive) with 786-0; 44.9 µM (inactive) with SF-539; 72.1 µM (inactive) with SW-620; 99.1 µM (inactive) with CAKI-1. Also, the GI50 in the test with SNB-75 was 40.1 µM (inactive).
For `C/C(=N\NC(=S)NC(CCC(=O)O)C(=O)O)c1ccccn1` (stereo unspecified), the GI50 is > 100 µM (inactive) in the test on CCRF-CEM; above 100 µM in the test with HCT-15; > 100 µM (inactive) in the test with MOLT-4; > 100 µM (inactive) with SR; > 100 µM (inactive) with COLO 205; > 100 µM (inactive) in the test on SN12C. For the same compound, the GI50 with SK-MEL-28, in the test on UACC-62, in the test on A549, with RXF 393, with HT-29 and in the test on UACC-257 was > 100 µM (inactive) in each case. Besides, the GI50 with Malme-3M, in the test on A498, with 786-0, in the test with SF-539, with SW-620 and with SNB-75 was > 100 µM (inactive) in each case.
For `O=C(Nc1ccccc1)OCc1nc2c([nH]1)C(=O)C=CC2=O`, the GI50 was 3.34 µM (inactive) in the test with CCRF-CEM; 18.2 µM in the test with HCT-15; 2.32 µM (inactive) with MOLT-4; 19.5 µM (inactive) in the test on SR; 1.9 µM (inactive) in the test with COLO 205; 17.2 µM (inactive) in the test with SN12C. Also, the GI50 is 15.6 µM (inactive) in the test on SK-MEL-28; 19.7 µM (inactive) in the test with UACC-62; 16.4 µM (inactive) with A549; 10.8 µM (inactive) in the test with RXF 393; 27.5 µM (inactive) in the test on HT-29; 3.42 µM (inactive) in the test on UACC-257. Besides, the GI50 was 6.4 µM (inactive) with Malme-3M; 16.2 µM (inactive) with A498; 18.3 µM (inactive) in the test with 786-0; > 100 µM (inactive) in the test on SF-539; 2.62 µM (inactive) in the test on SW-620; 0.35 µM (active) in the test with CAKI-1. Besides, the GI50 with SNB-75 is 19.3 µM (inactive).
For `COc1ccc(-c2c(C#N)c(N)n(C3OCC(OC(C)=O)C(OC(C)=O)C3OC(C)=O)c(=S)c2C#N)cc1` (stereo unspecified), the GI50 is 16.4 µM (inactive) and 31 µM (inactive) in the test with CCRF-CEM; 73.1 µM and 62.5 µM in the test with HCT-15; 17.6 µM (inactive) and 14.3 µM (inactive) with MOLT-4; 14.3 µM (inactive) and 14 µM (inactive) in the test on SR; 36.1 µM (inactive) and 50.1 µM (inactive) with COLO 205; 34.6 µM (inactive) and 34.5 µM (inactive) with SN12C. In addition, the GI50 was 61.4 µM (inactive) and 60.3 µM (inactive) with SK-MEL-28; 30.8 µM (inactive) and 40.9 µM (inactive) in the test with UACC-62; 99.5 µM (inactive) and 65.3 µM (inactive) in the test on A549; 19.1 µM (inactive) and 33.6 µM (inactive) in the test on RXF 393; 41.2 µM (inactive) and 44.5 µM (inactive) in the test with HT-29; > 100 µM (inactive) in the test on UACC-257. The GI50 in the test with Malme-3M is 44.9 µM (inactive) and 37.5 µM (inactive); in the test on A498, 32.7 µM (inactive) and 28.2 µM (inactive); in the test on 786-0, 42.4 µM (inactive) and 36.8 µM (inactive); with SF-539, 88.9 µM (inactive) and 87.9 µM (inactive); in the test with SW-620, > 100 µM (inactive) and 93.5 µM (inactive); in the test with CAKI-1, 38.5 µM (inactive) and 23.1 µM (inactive). Further, the GI50 in the test on SNB-75 was 31.8 µM (inactive) and 21 µM (inactive).
For `Cc1c(C(=O)C/C(=N/NC(=O)C[N+](C)(C)C)C(=O)Nc2ccc(Cl)cc2)[n+]([O-])c2ccccc2[n+]1[O-]`, the GI50 in the test on CCRF-CEM was > 100 µM (inactive); in the test on HCT-15 it was above 100 µM; in the test with MOLT-4, > 100 µM (inactive); in the test with SR, > 100 µM (inactive); in the test with COLO 205, > 100 µM (inactive); with SN12C, > 100 µM (inactive). Also, the GI50 with SK-MEL-28, in the test with UACC-62, in the test on A549, in the test on RXF 393, in the test with HT-29 and in the test on UACC-257 was > 100 µM (inactive) each time. Also, the GI50 in the test with Malme-3M, in the test on A498, with 786-0, in the test on SF-539, in the test with SW-620 and with CAKI-1 was > 100 µM (inactive) throughout. The GI50 in the test on SNB-75 is > 100 µM (inactive).
With `CC1=C2C(=CC(C)(C)C2O)C(=O)C(C)(O)C12CC2` (stereo unspecified), the GI50 in the test on CCRF-CEM is 0.00531 µM (active); in the test on HCT-15, 0.00393 µM; with MOLT-4, 0.00253 µM (active); in the test with SR, 0.00249 µM (active); with COLO 205, 0.0138 µM (active); in the test with SN12C, 0.0189 µM (active). Besides, the GI50 in the test with SK-MEL-28 was 0.0247 µM (active); in the test with UACC-62, 0.0116 µM (active); with A549, 0.0135 µM (active); in the test on RXF 393 it was 0.00752 µM (active); in the test on HT-29, 0.0028 µM (active); with UACC-257, 0.014 µM (active). Also, the GI50 is 0.012 µM (active) in the test on Malme-3M; 0.0279 µM (active) in the test on A498; 0.00759 µM (active) in the test on 786-0; 0.0209 µM (active) in the test with SF-539; 0.00305 µM (active) with SW-620; 0.00552 µM (active) in the test with CAKI-1. Moreover, in the test with SNB-75, the GI50 is 0.0123 µM (active).
With `O=c1[nH]c(=O)n(C2OC(COP(=O)(O)OP(=O)(O)OC3OC(CO)C(O)C(O)C3O)C(O)C2O)cc1F` (stereo unspecified), the GI50 in the test with CCRF-CEM is 0.0929 µM (active); with HCT-15, 0.0384 µM; in the test with MOLT-4, 0.0522 µM (active); with SR it was 0.0418 µM (active); in the test on COLO 205 it was 0.0984 µM (active); with SN12C it was 0.0809 µM (active). Moreover, the GI50 with SK-MEL-28 is 0.229 µM (active); in the test on UACC-62, 0.307 µM (active); in the test on A549, 0.0149 µM (active); in the test on RXF 393 it was 0.0522 µM (active); in the test with HT-29, 0.0582 µM (active); with UACC-257 it was 0.615 µM (active). In addition, the GI50 with Malme-3M is 0.21 µM (active); with A498, 0.239 µM (active); with 786-0, 0.0526 µM (active); with SF-539, 0.0552 µM (active); in the test with SW-620, 0.0504 µM (active); in the test on CAKI-1, 0.109 µM (active). Further, the GI50 in the test on SNB-75 is 1.64 µM (inactive).
With `O=C(OCc1ccccc1)n1cccc1`, the GI50 with CCRF-CEM was > 100 µM (inactive); in the test on MOLT-4, 76.9 µM (inactive); in the test with SR, 88.3 µM (inactive); with COLO 205, > 100 µM (inactive); with SN12C, > 100 µM (inactive); in the test with SK-MEL-28, > 100 µM (inactive). In addition, the GI50 is > 100 µM (inactive) with UACC-62; > 100 µM (inactive) in the test on A549; > 100 µM (inactive) with RXF 393; 65.9 µM (inactive) in the test with HT-29; > 100 µM (inactive) in the test with UACC-257; > 100 µM (inactive) with Malme-3M. The GI50 with A498 is > 100 µM (inactive); in the test on 786-0 it was > 100 µM (inactive); in the test with SF-539, > 100 µM (inactive); in the test with SW-620 it was > 100 µM (inactive); in the test with CAKI-1, > 100 µM (inactive); in the test with SNB-75, 31.8 µM (inactive).
On to `CSc1nc2c(nc(N)n2C2OC(CO)C(O)C(O)C2O)c(=O)[nH]1` (stereo unspecified), for which the GI50 in the test on CCRF-CEM, in the test with MOLT-4, in the test on SR, in the test with COLO 205, in the test on SN12C and in the test on SK-MEL-28 was > 100 µM (inactive) in each case. In addition, the GI50 in the test with UACC-62, with A549, with RXF 393, in the test with HT-29, with UACC-257 and with Malme-3M was > 100 µM (inactive) each time. The GI50 in the test on A498, with 786-0, in the test with SF-539, with SW-620, in the test on CAKI-1 and in the test with SNB-75 was > 100 µM (inactive) in each case.
Take `COc1cc(/C=C2\NC(=O)C3Cc4c(OC)c(C)c(OC)c(OC)c4C2N3C)c(OC)c(C)c1OC` (stereo unspecified): the GI50 in the test on CCRF-CEM was > 100 µM (inactive); in the test on MOLT-4 it was 44.2 µM (inactive); with SR, > 100 µM (inactive); in the test with COLO 205, > 100 µM (inactive); in the test with SN12C, > 100 µM (inactive); with SK-MEL-28 it was > 100 µM (inactive). Besides, the GI50 in the test on UACC-62 was > 100 µM (inactive); in the test on A549, > 100 µM (inactive); in the test on RXF 393 it was 85.3 µM (inactive); with HT-29 it was > 100 µM (inactive); with UACC-257, > 100 µM (inactive); with Malme-3M, > 100 µM (inactive). Besides, the GI50 with A498 was > 100 µM (inactive); in the test with 786-0 it was > 100 µM (inactive); with SF-539, > 100 µM (inactive); in the test with SW-620, > 10 µM (inactive); in the test on CAKI-1 it was > 100 µM (inactive); with SNB-75 it was > 100 µM (inactive).
